According to ChEMBL document CHEMBL1275577, “Study of the in vitro activities of rifaximin and comparator agents against 536 anaerobic intestinal bacteria from the perspective of potential utility in pathology involving bowel flora” (Antimicrob Agents Chemother, 2009):

What was measured:
Type in all cases: functional
[1] = system: Parabacteroides merdae; assay: Antimicrobial activity against Parabacteroides merdae by Wadsworth agar dilution method
[2] = system: Bacteroides caccae; assay: Antimicrobial activity against Bacteroides caccae by Wadsworth agar dilution method
[3] = system: Desulfovibrio sp.; assay: Antimicrobial activity against Desulfovibrio sp. by Wadsworth agar dilution method
[4] = system: Fusobacterium mortiferum; assay: Antimicrobial activity against Fusobacterium mortiferum by Wadsworth agar dilution method in presence of beta-lactamase inhibitor Sulbactam
[5] = system: Porphyromonas somerae; assay: Antimicrobial activity against Porphyromonas somerae by Wadsworth agar dilution method
[6] = system: Prevotella bivia; assay: Antimicrobial activity against Prevotella bivia by Wadsworth agar dilution method
[7] = system: Prevotella disiens; assay: Antimicrobial activity against Prevotella disiens by Wadsworth agar dilution method
[8] = system: Prevotella intermedia; assay: Antimicrobial activity against Prevotella intermedia by Wadsworth agar dilution method
[9] = system: Prevotella melaninogenica; assay: Antimicrobial activity against Prevotella melaninogenica by Wadsworth agar dilution method
[10] = system: Clostridioides difficile; assay: Antimicrobial activity against Clostridium difficile by Wadsworth agar dilution method
[11] = system: Clostridium hathewayi; assay: Antimicrobial activity against Clostridium hathewayi by Wadsworth agar dilution method; details: Hungatella hathewayi
[12] = system: [Clostridium] innocuum; assay: Antimicrobial activity against Clostridium innocuum by Wadsworth agar dilution method
[13] = system: Flavonifractor plautii; assay: Antimicrobial activity against Clostridium orbiscindens by Wadsworth agar dilution method
[14] = system: Clostridium perfringens; assay: Antimicrobial activity against Clostridium perfringens by Wadsworth agar dilution method
[15] = system: Clostridium aminobutyricum; assay: Antimicrobial activity against Clostridium aminobutyricum by Wadsworth agar dilution method
[16] = system: Clostridium bartlettii; assay: Antimicrobial activity against Clostridium bartlettii by Wadsworth agar dilution method; details: Intestinibacter bartlettii
[17] = system: Paraclostridium bifermentans; assay: Antimicrobial activity against Clostridium bifermentans by Wadsworth agar dilution method
[18] = system: Clostridium glycolicum; assay: Antimicrobial activity against Clostridium glycolicum by Wadsworth agar dilution method; details: Terrisporobacter glycolicus
[19] = system: Clostridium nexile; assay: Antimicrobial activity against Clostridium nexile by Wadsworth agar dilution method; details: Faecalimonas nexilis
[20] = system: Clostridium paraputrificum; assay: Antimicrobial activity against Clostridium paraputrificum by Wadsworth agar dilution method
[21] = system: Thomasclavelia ramosa; assay: Antimicrobial activity against Clostridium ramosum by Wadsworth agar dilution method
[22] = system: Fusobacterium mortiferum; assay: Antimicrobial activity against Clostridium rectum by Wadsworth agar dilution method
[23] = system: Clostridium septicum; assay: Antimicrobial activity against Clostridium septicum by Wadsworth agar dilution method
[24] = system: Paeniclostridium sordellii; assay: Antimicrobial activity against Clostridium sordellii by Wadsworth agar dilution method; details: Paraclostridium sordellii

NC[C@@H]1O[C@H](O[C@H]2[C@@H](O)[C@H](O[C@@H]3[C@@H](O)[C@H](N)C[C@H](N)[C@H]3O[C@H]3O[C@H](CN)[C@@H](O)[C@H](O)[C@H]3N)O[C@@H]2CO)[C@H](N)[C@@H](O)[C@@H]1O [FRAMYCETIN]
64 µg/mL: MIC50 [11]
512 µg/mL: MIC50 [4] | MIC50 [5] | MIC50 [6] | MIC50 [7] | MIC50 [8] | MIC50 [9] | MIC90 [10] | MIC90 [11] | MIC90 [13]
> 1020 µg/mL: MIC90 [1] | MIC50 [2] | MIC90 [2] | MIC90 [4] | MIC90 [5] | MIC50 [12] | MIC90 [12] | MIC90 [14]
256 µg/mL: MIC50 [3] | MIC50 [10] | MIC50 [13] | MIC50 [15] | MIC50 [16] | MIC50 [17] | MIC50 [18] | MIC50 [19] | MIC50 [20] | MIC50 [21] | MIC50 [22] | MIC50 [23] | MIC50 [24]
1020 µg/mL: MIC50 [1] | MIC90 [3] | MIC90 [6] | MIC90 [7] | MIC90 [8] | MIC90 [9] | MIC50 [14] | MIC90 [15] | MIC90 [16] | MIC90 [17] | MIC90 [18] | MIC90 [19] | MIC90 [20] | MIC90 [21] | MIC90 [22] | MIC90 [23]
